# Assay results: patent US11369648B2 (priority 2018, dated 2022)
# Entries after “also recorded” stand apart in the source; their conditions may differ.
# Assays:
# influenza virus [1] = tested on: influenza virus; parameters: species or system ICR female mice; settings: mouse, in vivo
# influenza virus [2] = test: Effect on body weight of influenza mice; type: in vivo, ICR female mice; settings: fourth day after challenge, bacteria 10^9 CFU intragastrically daily from two weeks before challenge, ribavirin intraperitoneally from second day
# influenza virus [3] = test: Effect on viral load in lungs of influenza mice (qPCR); type: in vivo, ICR female mice
# influenza virus [4] = test: Effect on blood indexes (neutrophils, lymphocytes) of influenza mice; parameters: species or system ICR female mice; settings: mouse, in vivo
# antiviral protein MxA = type: in vivo, ICR female mice; settings: qPCR, GAPDH internal reference, 2^-ΔΔt, times that of the model group
structure (smiles),measurement,setting,value
"NC(=O)c1ncn([C@@H]2O[C@H](CO)[C@@H](O)[C@H]2O)n1 [Treatment, ribavirin]","lung histopathology (inflammation, infiltration of inflammatory cells)",influenza virus [1],mild infiltration of inflammatory cells; also recorded: relatively mild inflammation; also recorded: some moderate and mild inflammation
same,body weight decrease compared with the control group (Control),influenza virus [2],about 5%
same,reduction in viral load in the lungs (significance versus model group),"influenza virus [3]; mouse, in vivo",has significance
same,"viral load in the lungs, relative to the model group","influenza virus [3]; right lung, fifth day after challenge, qPCR, GAPDH internal reference, 2^-ΔΔt, % of that of the model group",38.03%
same,"lymphocytes, change compared with the blank control group (Control)",influenza virus [4],without significant differences
same,"neutrophils, change compared with the blank control group (Control)",influenza virus [4],without significant differences
same,"expression quantity of MxA in the lungs, relative to the model group (Model)",antiviral protein MxA,2.62 times
